Measured values: patent publication US11813306B2, “Cyclic tetramer compounds as proprotein convertase subtilisin/kexin type 9 (PCSK9) inhibitors for the treatment of metabolic disorders” (NOVARTIS AG, priority 2018, dated 2023)

Molecular target: human PCSK9 (Homo sapiens, UniProt Q8NBP7)
Assay: PCSK9 ligand binding assay (TR-FRET): interference with binding of human PCSK9 to human LDLR
Conditions: for IC50: Human PCSK9 Alexa Fluor 647 / Human LDLR extracellular domain-Europium Kryptate; for Max % inhibition: efficacy (Amax), 100% = 1 uM unlabeled human PCSK9, 0% = DMSO
In short: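 Read-out was TR-FRET ratio (665 nm over 615 nm, 330 nm excitation) between Alexa Fluor 647-human PCSK9 (16 nM added) and Europium Kryptate-human LDLR ectodomain (4 nM added). Compound and PCSK9 were mixed 30 min before LDLR, then incubated 2 h. Inhibition was normalised to DMSO and unlabelled-PCSK9 controls, giving IC50 and Amax.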

human PCSK9, sequence (Q8NBP7 153-692): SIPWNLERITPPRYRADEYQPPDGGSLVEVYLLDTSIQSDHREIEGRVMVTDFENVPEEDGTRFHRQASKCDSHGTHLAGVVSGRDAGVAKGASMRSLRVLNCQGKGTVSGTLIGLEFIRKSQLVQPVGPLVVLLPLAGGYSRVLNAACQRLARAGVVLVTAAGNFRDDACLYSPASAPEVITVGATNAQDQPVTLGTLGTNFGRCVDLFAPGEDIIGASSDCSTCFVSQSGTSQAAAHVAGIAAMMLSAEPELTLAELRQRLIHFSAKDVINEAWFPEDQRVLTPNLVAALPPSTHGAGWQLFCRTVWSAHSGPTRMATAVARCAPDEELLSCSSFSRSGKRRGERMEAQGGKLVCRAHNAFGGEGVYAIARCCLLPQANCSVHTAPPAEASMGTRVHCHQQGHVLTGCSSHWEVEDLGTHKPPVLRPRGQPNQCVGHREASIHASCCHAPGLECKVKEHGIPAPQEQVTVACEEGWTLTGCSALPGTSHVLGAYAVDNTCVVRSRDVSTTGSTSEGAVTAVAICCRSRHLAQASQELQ
human PCSK9, sequence (Q8NBP7 31-152 partner limits assumed): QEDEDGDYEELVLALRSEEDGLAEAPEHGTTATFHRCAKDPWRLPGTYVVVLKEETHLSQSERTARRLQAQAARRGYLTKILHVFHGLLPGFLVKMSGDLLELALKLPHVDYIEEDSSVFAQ

| SMILES | IC50 | Max % inhibition |
| --- | --- | --- |
| C[C@H]1C(=O)N[C@@H](CO)C(=O)N(C)[C@@]2(Cc3ccc(Cl)cc3)CCCN(C2)C(=O)[C@H](Cc2ccccc2)CC(=O)N1Cc1ccc(Cl)cc1Oc1ccc(-c2cnc(CN(C)C)n2C)cc1 [Compound 53, (3R, 7S, 10S, 13R)-3-benzyl-6-(4-chloro-2-(4-(2-((dimethylamino)methyl)-1-methyl-1H-imidazol-5-yl)phenoxy)benzyl)-13-(4-chlorobenzyl)-10-(hydroxymethyl)-7,12-dimethyl-1,6,9,12-tetraazabicyclo[11.3.1]heptadecane-2,5,8,11-tetraone] | 0.7 nM | 107.4% |
| C[C@H]1C(=O)N[C@@H](CO)C(=O)N[C@@]2(Cc3ccc(Cl)cc3)CCCN(C2)C(=O)[C@H](Cc2ccccc2)CC(=O)N1Cc1cc(F)c(Cl)cc1Oc1ccc(-c2cnc(CN(C)C)n2C)cc1 [Compound 54, (3R, 7S, 10S, 13R)-3-benzyl-6-(4-chloro-2-(4-(2-((dimethylamino)methyl)-1-methyl-1H-imidazol-5-yl)phenoxy)-5-fluorobenzyl)-13-(4-chlorobenzyl)-10-(hydroxymethyl)-7-methyl-1,6,9,12-tetraazabicyclo[11.3.1]heptadecane-2,5,8,11-tetraone] | 0.624 nM | 109.4% |
| C[C@H]1C(=O)N[C@@H](CO)C(=O)N[C@@]2(Cc3ccc(Cl)cc3)CCCN(C2)C(=O)[C@H]([C@@H]2CCc3ccccc32)CC(=O)N1Cc1ccccc1Oc1ccc(-c2cnc(CN(C)C)n2C)cc1 [Compound 55, (3S,7S,10S,13R)-13-(4-chlorobenzyl)-3-((S)-2,3-dihydro-1H-inden-1-yl)-6-(2-(4-(2-((dimethylamino)methyl)-1-methyl-1H-imidazol-5-yl)phenoxy)benzyl)-10-(hydroxymethyl)-7-methyl-1,6,9,12-tetraazabicyclo[11.3.1]heptadecane-2,5,8,11-tetraone] | 0.742 nM | 96.0% |
| C[C@H]1C(=O)N[C@@H](CO)C(=O)N[C@@]2(Cc3ccc(Cl)cc3)CCCN(C2)C(=O)[C@H](Cc2ccccc2)CC(=O)N1Cc1ccc(Cl)cc1Oc1ccc(-c2nnc(CN(C)C)n2C)cc1 [Compound 56, (3R, 7S, 10S, 13R)-3-benzyl-6-(4-chloro-2-(4-(5-((dimethylamino)methyl)-4-methyl-4H-1,2,4-triazol-3-yl)phenoxy)benzyl)-13-(4-chlorobenzyl)-10-(hydroxymethyl)-7-methyl-1,6,9,12-tetraazabicyclo[11.3.1]heptadecane-2,5,8,11-tetraone] | 0.425 nM | 101.7% |
| COC[C@@H]1NC(=O)[C@H](C)N(Cc2c(F)cc(Cl)cc2Oc2ccc(-c3cnc(CN(C)C)n3C)cc2)C(=O)C[C@@H](Cc2ccccn2)C(=O)N2CCC[C@@](Cc3ccc(Cl)cc3)(C2)N(C)C1=O [Compound 57, (3R,7S,10S,13R)-6-(4-Chloro-2-(4-(2-((dimethylamino)methyl)-1-methyl-1H-imidazol-5-yl)phenoxy)-6-fluorobenzyl)-13-(4-chlorobenzyl)-10-(methoxymethyl)-7,12-dimethyl-3-(pyridin-2-ylmethyl)-1,6,9,12-tetraazabicyclo[11.3.1]heptadecane-2,5,8,11-tetraone] | 0.763 nM | 115.6% |
| C[C@H]1C(=O)N[C@@H](CO)C(=O)N[C@@]2(Cc3ccc(Cl)cc3)CCCN(C2)C(=O)[C@H](CC(F)F)NC(=O)N1Cc1ccc(Cl)cc1Oc1ccc(-c2cnc(CN(C)C)n2C)cc1.Cl [Compound 58, (3S, 7S, 10S, 13R)-6-(4-chloro-2-(4-(2-((dimethylamino)methyl)-1-methyl-1H-imidazol-5-yl)phenoxy)benzyl)-13-(4-chlorobenzyl)-3-(2,2-difluoroethyl)-10-(hydroxymethyl)-7-methyl-1,4,6,9,12-pentaazabicyclo[11.3.1]heptadecane-2,5,8,11-tetraone] | 0.367 nM | 106.6% |
| COC[C@@H]1NC(=O)[C@H](C)N(Cc2ccc(Cl)cc2Oc2ccc(-c3cnc(CN4CC[C@H](O)C4)n3C)cc2)C(=O)C[C@@H](Cc2ccccc2)C(=O)N2CCC[C@@](Cc3ccc(Cl)cc3)(C2)NC1=O.Cl [Compound 59, (3R, 7S, 10S, 13R)-3-benzyl-6-(4-chloro-2-(4-(2-(((S)-3-hydroxypyrrolidin-1-yl)methyl)-1-methyl-1H-imidazol-5-yl)phenoxy)benzyl)-13-(4-chlorobenzyl)-10-(methoxymethyl)-7-methyl-1,6,9,12-tetraazabicyclo+11.3.1+heptadecane-2,5,8,11-tetraone] | 0.572 nM | 103.6% |
| COC[C@@H]1NC(=O)[C@H](C)N(Cc2ccc(Cl)cc2Oc2ccc(-c3cnc(CN4CCC(O)CC4)n3C)cc2)C(=O)C[C@@H](Cc2ccccc2)C(=O)N2CCC[C@@](Cc3ccc(Cl)cc3)(C2)NC1=O.Cl [Compound 61] | 0.623 nM | 109.3% |
| C[C@H]1C(=O)N[C@@H](CO)C(=O)N[C@@]2(Cc3ccc(Cl)cc3)CCCN(C2)C(=O)[C@H](Cc2ccc(C(F)(F)F)cc2)CC(=O)N1Cc1ccc(Cl)cc1Oc1ccc(-c2cnc(CN(C)C)n2C)cc1 [Compound 62, (3R, 7S, 10S, 13R)-6-(4-chloro-2-(4-(2-((dimethylamino)methyl)-1-methyl-1H-imidazol-5-yl)phenoxy)benzyl)-13-(4-chlorobenzyl)-10-(hydroxymethyl)-7-methyl-3-(4-(trifluoromethyl)benzyl)-1,6,9,12-tetraazabicyclo[11.3.1]heptadecane-2,5,8,11-tetraone] | 0.963 nM | 110.7% |
| CC[C@@H]1CC(=O)N(Cc2c(F)cc(Cl)cc2Oc2ccc(-c3cnc(CN(C)C)n3C)cc2)[C@@H](C)C(=O)N[C@@H](COC)C(=O)N[C@@]2(Cc3ccc(Cl)cc3)CCCN(C2)C1=O [Compound 63] | 0.851 nM | 117.9% |
| C[C@H](O)[C@@H]1NC(=O)[C@H](C)N(Cc2ccc(Cl)cc2Oc2ccc(-c3cnc(CN(C)C)n3C)cc2)C(=O)C[C@@H](CC(F)(F)F)C(=O)N2CCC[C@@](Cc3ccc(Cl)cc3)(C2)NC1=O [Compound 64, (3S,7S,10S,13R)-6-(4-chloro-2-(4-(2-((dimethylamino)methyl)-1-methyl-1H-imidazol-5-yl)phenoxy)benzyl)-13-(4-chlorobenzyl)-10-((S)-1-hydroxyethyl)-7-methyl-3-(2,2,2-trifluoroethyl)-1,6,9,12-tetraazabicyclo[11.3.1]heptadecane-2,5,8,11-tetraone] | 1.16 nM | 99.7% |
| COC[C@@H]1NC(=O)[C@H](C)N(Cc2ccc(Cl)cc2Oc2ccc(-c3cnc(CN(C)C)n3C)cc2)C(=O)C[C@@H](Cc2ccccc2)C(=O)N2CCC[C@@](Cc3ccc(Cl)cc3)(C2)N(C)C1=O [Compound 65, (3R, 7S, 10S, 13R)-3-benzyl-6-(4-chloro-2-(4-(2-((dimethylamino)methyl)-1-methyl-1H-imidazol-5-yl)phenoxy)benzyl)-13-(4-chlorobenzyl)-10-(methoxymethyl)-7,12-dimethyl-1,6,9,12-tetraazabicyclo[11.3.]heptadecane-2,5,8,11-tetraone] | 0.621 nM | 109.2% |
| C[C@H]1C(=O)N[C@@H](CO)C(=O)N[C@@]2(Cc3ccc(Cl)cc3)CCCN(C2)C(=O)[C@H](Cc2cccc[n+]2[O-])CC(=O)N1Cc1ccc(Cl)cc1Oc1ccc(-c2cnc(CN(C)C)n2C)cc1 [Compound 66, 2-(((3R,7S,10S,13R)-6-(4-Chloro-2-(4-(2-((dimethylamino)methyl)-1-methyl-1H-imidazol-5-yl)phenoxy)benzyl)-13-(4-chlorobenzyl)-10-(hydroxymethyl)-7-methyl-2,5,8,11-tetraoxo-1,6,9,12-tetraazabicyclo[11.3.1]heptadecan-3-yl)methyl)pyridine 1-oxide] | 0.673 nM | 104.2% |
| CC(C)[C@@H]1NC(=O)N(Cc2ccc(Cl)cc2Oc2ccc(-c3cnc(CN(C)C)n3C)cc2)[C@@H](C)C(=O)N[C@@H](CO)C(=O)N[C@@]2(Cc3ccc(Cl)cc3)CCCN(C2)C1=O.Cl [Compound 67, (3S, 7S, 10S, 13R)-6-(4-chloro-2-(4-(2-((dimethylamino)methyl)-1-methyl-1H-imidazol-5-yl)phenoxy)benzyl)-13-(4-chlorobenzyl)-10-(hydroxymethyl)-3-isopropyl-7-methyl-1,4,6,9,12-pentaazabicyclo[11.3.1]heptadecane-2,5,8,11-tetraone] | 0.334 nM | 104.2% |
| C[C@H]1C(=O)N[C@@H](CO)C(=O)N[C@@]2(Cc3ccc(Cl)cc3)CCCN(C2)C(=O)[C@H]([C@H]2CCc3ccccc32)CC(=O)N1Cc1ccc(Cl)cc1Oc1ccc(-c2cnc(CN3CCCC3)n2C)cc1.Cl [Compound 68, (3S,7S,10S,13R)-6-(4-chloro-2-(4-(1-methyl-2-(pyrrolidin-1-ylmethyl)-1H-imidazol-5-yl)phenoxy)benzyl)-13-(4-chlorobenzyl)-3-((R)-2,3-dihydro-1H-inden-1-yl)-10-(hydroxymethyl)-7-methyl-1,6,9,12-tetraazabicyclo[11.3.1]heptadecane-2,5,8,11-tetraone hydrochloride] | 1.62 nM | 95.0% |
| C[C@H]1C(=O)N[C@@H](CO)C(=O)N[C@@]2(Cc3ccc(Cl)cc3)CCCN(C2)C(=O)[C@H]([C@@H]2CCc3ccccc32)CC(=O)N1Cc1ccc(Cl)cc1Oc1ccc(-c2cnc(C3CN(C)C3)n2C)cc1 [Compound 69, (3S, 7S, 10S, 13R)-6-(4-chloro-2-(4-(1-methyl-2-(1-methylazetidin-3-yl)-1H-imidazol-5-yl)phenoxy)benzyl)-13-(4-chlorobenzyl)-3-((S)-2,3-dihydro-1H-inden-1-yl)-10-(hydroxymethyl)-7-methyl-1,6,9,12-tetraazabicyclo[11.3.1]heptadecane-2,5,8,11-tetraone] | 0.781 nM | 70.1% |
